Reference: ChEMBL document CHEMBL3751773, “A minimally cytotoxic CD4 mimic as an HIV entry inhibitor” (Bioorg Med Chem Lett, 2016)

Experiments:
Rhesus monkey [1] = experiment: Toxicity in rhesus macaque assessed as survival at 77.8 mg, iv measured after 6 months; assay type: organism-based, Macaca mulatta; conditions: in vivo, 4383 h
Rhesus monkey [2] = experiment: Toxicity in rhesus macaque assessed as decrease in body temperature at 77.8 mg, iv after 24 hrs; assay type: organism-based, Macaca mulatta; conditions: in vivo
Rhesus monkey [3] = experiment: Toxicity in rhesus macaque assessed as decrease in body temperature at 77.8 mg, iv measured within 2 hrs; assay type: organism-based, Macaca mulatta; conditions: in vivo
[4] = Toxicity in iv dosed rhesus macaque; assay type: organism-based, Macaca mulatta; conditions: rhesus monkey, in vivo
Rhesus monkey [5] = experiment: Toxicity in rhesus macaque assessed as mydriasis at 77.8 mg, iv measured within 2 hrs; assay type: organism-based, Macaca mulatta; conditions: in vivo
PM1 = experiment: Induction of conformational change in R5-tropic HIV1 cYTA48P gp120 infected in human PM1 cells assessed as increase in binding affinity to monoclonal antibody 4C11 at 100 uM after 15 mins by FACS analysis; assay type: cell-based; conditions: Human immunodeficiency virus 1
[6] = system: Human immunodeficiency virus 1; experiment: Antiviral activity against R5-tropic HIV1 cYTA48P infected in TZM-bl cells by single round assay; assay type: functional, organism-based; conditions: Human immunodeficiency virus 1, cYTA48P
[7] = Cytotoxicity against mock-infected human PM1 cells expressing CCR5 by WST method; assay type: cell-based
[8] = Initial concentration in rhesus macaque blood at 75 mg, iv after 0 to 24 hrs by HPLC analysis; assay type: ADME, organism-based, Macaca mulatta; conditions: rhesus monkey
[9] = Half life in rhesus macaque plasma at 75 mg, iv after 0 to 24 hrs by HPLC analysis; assay type: ADME, organism-based, Macaca mulatta; conditions: rhesus monkey
[10] = Volume of distribution in rhesus macaque plasma at 75 mg, iv after 0 to 24 hrs by HPLC analysis; assay type: ADME, organism-based, Macaca mulatta; conditions: rhesus monkey

CC1(C)CC(NC(=O)C(=O)Nc2ccc3c(c2)OCO3)CC(C)(C)N1.Cl
Activity (Rhesus monkey [1]): Non-toxic | Activity (Rhesus monkey [2]): Non-toxic | Activity (Rhesus monkey [3]): Toxic | MTD [4]: 12.5 mg/kg | Activity (Rhesus monkey [5]): Toxic

CCOC(=O)C1CCN(NC(=O)C(=O)Nc2ccc3c(c2)OCO3)CC1
Flu intensity (PM1): 7.83 | IC50 [6]: > 100 µM | CC50 [7]: > 200 µM

CC1(C)CC(NC(=O)C(=O)Nc2ccc3c(c2)OCO3)CC(C)(C)N1 [listing 1 of 2 here]
C0 [8]: 2090 ng/mL | half-life [9]: 1.75 h | IC50 [6]: 6.2 µM | CC50 [7]: > 300 µM | Vd [10]: 37.2 L

CC1(C)CC(NC(=O)C(=O)Nc2ccc(Cl)cc2)CC(C)(C)N1
Flu intensity (PM1): 8.91 | IC50 [6]: 0.63 µM | CC50 [7]: 70.4 µM

O=C(Nc1ccc2c(c1)OCO2)C(=O)NC1CC2(CCCCC2)NC2(CCCCC2)C1 (stereo not given)
Flu intensity (PM1): 6.93 | IC50 [6]: 1.13 µM | CC50 [7]: > 200 µM

CC1(C)CC(NC(=O)C(=O)Nc2ccc3c(c2)OCO3)CC(C)(C)N1 [listing 2 of 2 here]
Flu intensity (PM1): 12.3
